Test results as given in patent US9072703B2 (Ipsen Pharma S.A.S., priority 2008, dated 2015).
Non-standard residues stand in square brackets, D forms with d. No end group written: not given here. *: point of attachment. Myristoyl = CCCCCCCCCCCCCC(=O)*; 12Ado = NCCCCCCCCCCCC(=O)O; Ac6c = NC1(C(=O)O)CCCCC1; Nle = CCCC[C@H](N)C(=O)O; Orn = NCCC[C@H](N)C(=O)O; Ac5c = NC1(C(=O)O)CCCC1; Aib = CC(C)(N)C(=O)O

Tests used:
[1] = Human plasma half-life assay; type: in vitro ADME; conditions: 37° C., LC-MS, read-out: Human Plasma T½ (converted)
Description: (§1) B. Human and Rat Plasma Half-Life Assay
(§2) 50 μL was removed at various times, like at 0, 1, 2, 3, 4, 8, 24, 32, 48, 56, 72 hours, mixed with 5 μL formic acid and 150 μL acetonitrile in a microcentrifuge tube, vertexed, and centrifuged for 10 minutes at 10K rpm. The supernatant was transferred to an injection vial and analyzed by LC-MS. The LC-MS system consisted of an API4000 mass spectrometer with an ESI probe. Positive ion mode and full scan detection were used. HPLC separation was carried out on a Luna 3μ C8 (2), 2×30 mm column with a gradient from 90% A to 90% B in 10 minutes at a flow rate of 0.3 ml/min. Buffer A was 1% formic acid in water and buffer B was 1% formic acid acetonitrile.

[2] = Rat plasma half-life assay; type: in vitro ADME; conditions: 37° C., LC-MS, read-out: Rat Plasma T½ (converted)
Description: as §1, §2

In the case of `CCCCCCCCCCCC(=O)NCCCC[C@H](NC(=O)[C@H](CCC(N)=O)NC(=O)[C@@H](NC(=O)[C@@H](NC(=O)[C@H](CC(N)=O)NC(=O)[C@H](Cc1c[nH]cn1)NC(=O)[C@H](CCCCN)NC(=O)[C@H](Cc1c[nH]c2ccccc12)NC(=O)[C@H](CC(=O)O)NC(=O)[C@H](CC(N)=O)NC(=O)[C@H](CCCCN)NC(=O)[C@H](CCCCN)NC(=O)CNC(=O)[C@H](CCCCN)NC(=O)[C@H](CCC(N)=O)NC(=O)[C@H](C)NC(=O)[C@H](CC(C)C)NC(=O)[C@H](CC(C)C)NC(=O)[C@H](Cc1c[nH]c2ccccc12)NC(=O)[C@H](CC(N)=O)NC(=O)[C@@H](NC(=O)[C@H](Cc1ccccc1)NC(=O)[C@H](CC(=O)O)NC(=O)[C@H](CCC(N)=O)NC(=O)[C@H](CCC(N)=O)NC(=O)[C@H](Cc1c[nH]cn1)NC(=O)[C@@H](NC(=O)[C@H](CCCCN)NC(=O)[C@H](CC(=O)O)NC(=O)[C@H](CCSC)NC(=O)[C@H](C)NC(=O)[C@@H](NC(=O)C1(NC(=O)[C@H](Cc2ccc(O)cc2)NC(=O)[C@H](CC(=O)O)NC(=O)[C@H](CO)NC(=O)[C@@H](NC(=O)[C@H](Cc2ccccc2)NC(=O)[C@@H](NC(=O)CNC(=O)[C@H](CCC(=O)O)NC(=O)[C@H](C)NC(=O)[C@@H](N)Cc2ccc(O)cc2)[C@@H](C)O)[C@@H](C)CC)CCCC1)[C@@H](C)CC)[C@@H](C)CC)C(C)C)[C@@H](C)CC)[C@@H](C)O)C(=O)O` [Example 36, [A5c^11, Lys^43(N—C(O)—(CH2)10—CH3)]hGIP(1-43)-OH], the half-life at 0.1 mg/ml [1] is reported as 14.8 h and the half-life at 0.1 mg/ml [2] is reported as 53.3 h.

`CCCCCCCCCCCCCCCC(=O)NCCCC[C@H](NC(=O)[C@H](CCC(N)=O)NC(=O)[C@@H](NC(=O)[C@@H](NC(=O)[C@H](CC(N)=O)NC(=O)[C@H](Cc1c[nH]cn1)NC(=O)[C@H](CCCCN)NC(=O)[C@H](Cc1c[nH]c2ccccc12)NC(=O)[C@H](CC(=O)O)NC(=O)[C@H](CC(N)=O)NC(=O)[C@H](CCCCN)NC(=O)[C@H](CCCCN)NC(=O)CNC(=O)[C@H](CCCCN)NC(=O)[C@H](CCC(N)=O)NC(=O)[C@H](C)NC(=O)[C@H](CC(C)C)NC(=O)[C@H](CC(C)C)NC(=O)[C@H](Cc1c[nH]c2ccccc12)NC(=O)[C@H](CC(N)=O)NC(=O)[C@@H](NC(=O)[C@H](Cc1ccccc1)NC(=O)[C@H](CC(=O)O)NC(=O)[C@H](CCC(N)=O)NC(=O)[C@H](CCC(N)=O)NC(=O)[C@H](Cc1c[nH]cn1)NC(=O)[C@@H](NC(=O)[C@H](CCCCN)NC(=O)[C@H](CC(=O)O)NC(=O)[C@H](CCSC)NC(=O)[C@H](C)NC(=O)[C@@H](NC(=O)C1(NC(=O)[C@H](Cc2ccc(O)cc2)NC(=O)[C@H](CC(=O)O)NC(=O)[C@H](CO)NC(=O)[C@@H](NC(=O)[C@H](Cc2ccccc2)NC(=O)[C@@H](NC(=O)CNC(=O)[C@H](CCC(=O)O)NC(=O)[C@H](C)NC(=O)[C@@H](N)Cc2ccc(O)cc2)[C@@H](C)O)[C@@H](C)CC)CCCC1)[C@@H](C)CC)[C@@H](C)CC)C(C)C)[C@@H](C)CC)[C@@H](C)O)C(=O)O` [Example 40, [A5c^11, Lys^43(N—C(O)—(CH2)14—CH3)]hGIP(1-43)-OH] gave a half-life at 0.1 mg/ml [1] of 17.2 h and a half-life at 0.1 mg/ml [2] of 19.3 h.

`CCCCCCCCCCCCCCCC(=O)NCCC[C@H](NC(=O)CNC(=O)[C@H](CCCCN)NC(=O)[C@H](CCC(N)=O)NC(=O)[C@H](C)NC(=O)[C@H](CC(C)C)NC(=O)[C@H](CC(C)C)NC(=O)[C@H](Cc1c[nH]c2ccccc12)NC(=O)[C@H](CC(N)=O)NC(=O)[C@@H](NC(=O)[C@H](Cc1ccccc1)NC(=O)[C@H](CC(=O)O)NC(=O)[C@H](CCC(N)=O)NC(=O)[C@H](CCC(N)=O)NC(=O)[C@H](Cc1c[nH]cn1)NC(=O)[C@@H](NC(=O)[C@H](CCCCN)NC(=O)[C@H](CC(=O)O)NC(=O)[C@H](CCSC)NC(=O)[C@H](C)NC(=O)[C@@H](NC(=O)C1(NC(=O)[C@H](Cc2ccc(O)cc2)NC(=O)[C@H](CC(=O)O)NC(=O)[C@H](CO)NC(=O)[C@@H](NC(=O)[C@H](Cc2ccccc2)NC(=O)[C@@H](NC(=O)CNC(=O)[C@H](CCC(=O)O)NC(=O)[C@H](C)NC(=O)[C@@H](N)Cc2ccc(O)cc2)[C@@H](C)O)[C@@H](C)CC)CCCC1)[C@@H](C)CC)[C@@H](C)CC)C(C)C)C(=O)N[C@@H](CCCCN)C(=O)N[C@@H](CC(N)=O)C(=O)N[C@@H](CC(=O)O)C(=O)N[C@@H](Cc1c[nH]c2ccccc12)C(=O)N[C@@H](CCCCN)C(=O)N[C@@H](Cc1c[nH]cn1)C(=O)N[C@@H](CC(N)=O)C(=O)N[C@H](C(=O)N[C@H](C(=O)N[C@@H](CCC(N)=O)C(=O)N[C@@H](Cc1c[nH]cn1)C(=O)O)[C@@H](C)O)[C@@H](C)CC` [Example 41, [A5c^11, Orn^32(N—C(O)—(CH2)14—CH3), His^43]hGIP(1-43)-OH] showed a half-life at 0.1 mg/ml [1] of 6.6 h and a half-life at 0.1 mg/ml [2] of 22.9 h.

Compound `CCCCCCCCCCCCCCCC(=O)NCCC[C@H](NC(=O)[C@H](CCCCN)NC(=O)CNC(=O)[C@H](CCCCN)NC(=O)[C@H](CCC(N)=O)NC(=O)[C@H](C)NC(=O)[C@H](CC(C)C)NC(=O)[C@H](CC(C)C)NC(=O)[C@H](Cc1c[nH]c2ccccc12)NC(=O)[C@H](CC(N)=O)NC(=O)[C@@H](NC(=O)[C@H](Cc1ccccc1)NC(=O)[C@H](CC(=O)O)NC(=O)[C@H](CCC(N)=O)NC(=O)[C@H](CCC(N)=O)NC(=O)[C@H](Cc1c[nH]cn1)NC(=O)[C@@H](NC(=O)[C@H](CCCCN)NC(=O)[C@H](CC(=O)O)NC(=O)[C@H](CCSC)NC(=O)[C@H](C)NC(=O)[C@@H](NC(=O)C1(NC(=O)[C@H](Cc2ccc(O)cc2)NC(=O)[C@H](CC(=O)O)NC(=O)[C@H](CO)NC(=O)[C@@H](NC(=O)[C@H](Cc2ccccc2)NC(=O)[C@@H](NC(=O)CNC(=O)[C@H](CCC(=O)O)NC(=O)[C@H](C)NC(=O)[C@@H](N)Cc2ccc(O)cc2)[C@@H](C)O)[C@@H](C)CC)CCCC1)[C@@H](C)CC)[C@@H](C)CC)C(C)C)C(=O)N[C@@H](CC(N)=O)C(=O)N[C@@H](CC(=O)O)C(=O)N[C@@H](Cc1c[nH]c2ccccc12)C(=O)N[C@@H](CCCCN)C(=O)N[C@@H](Cc1c[nH]cn1)C(=O)N[C@@H](CC(N)=O)C(=O)N[C@H](C(=O)N[C@H](C(=O)N[C@@H](CCC(N)=O)C(=O)N[C@@H](Cc1c[nH]cn1)C(=O)O)[C@@H](C)O)[C@@H](C)CC` [Example 42, [A5c^11, Orn^33(N—C(O)—(CH2)14—CH3), His^43]hGIP(1-43)-OH] has a half-life at 0.1 mg/ml [1] of 6.3 h and a half-life at 0.1 mg/ml [2] of 28.3 h.

Work on “H-YAEGTF[Ac6c]SDYSIAMDKIHQQDFVNWLLAQKGKKN[Orn](Myristoyl)WKHNITQ-OH [Example 18, [A6c^7, Orn^35(N—C(O)—(CH2)12—CH3)]hGIP(1-42)-OH]” yielded a half-life at 0.1 mg/ml [1] of 7.3 h and a half-life at 0.1 mg/ml [2] of 16.7 h.

In the case of “YAEGTFISDYSI[Aib]MDKIHQQDFVNWLLAQKGKKNDWKHNITQW-OH [Example 12, (Aib^13, Trp^43)hGIP(1-43)-OH]”, the half-life at 0.1 mg/ml [1] is reported as 6.9 h and the half-life at 0.1 mg/ml [2] is reported as 2.1 h.

With “YAEGTFISDYSI[Aib][Nle]DKIHQQDFVNWLLAQKGKKNDWKHNITQF-OH [Example 9, (Aib^13, Nle^14, Phe^43)hGIP(1-43)-OH]” the half-life at 0.1 mg/ml [1] was 6.9 h and the half-life at 0.1 mg/ml [2] was 1.3 h.

“YAEGTFISDY[Ac5c]IAMDKIHQQDFVNWLLAQKGCKNDWKHNI[Ac5c]Q-NH2 [Example 31, (A5c^11, 41, Cys^32)hGIP(1-42)-NH2]” showed a half-life at 0.1 mg/ml [1] of 26.6 h and a half-life at 0.1 mg/ml [2] of 16.3 h.

“YAEGTFISDY[Ac5c]IAMDKIHQQDFVNWLLAQKGKKNDWKHNITQA-OH [Example 8, (A5c^11, Ala^43)hGIP(1-43)-OH]” showed a half-life at 0.1 mg/ml [1] of 7.4 h and a half-life at 0.1 mg/ml [2] of 2.3 h.

Work on “YAEGTFISDY[Ac5c]IAMDKIHQQDFVNWLLAQKGKKNDWKHNITQT-OH [Example 10, (A5c^11, Thr^43)hGIP(1-43)-OH]” yielded a half-life at 0.1 mg/ml [1] of 7.9 h and a half-life at 0.1 mg/ml [2] of 2.1 h.

Work on “YAEGTFISDY[Ac5c]IAMDKIHQQDFVNWLLAQKGKKNDWKHNITQ[12Ado]-OH [Example 13, (A5c^11, Ado^43)hGIP(1-43)-OH]” yielded a half-life at 0.1 mg/ml [1] of 13.1 h and a half-life at 0.1 mg/ml [2] of 18.8 h.

For “YAEGTFISDY[Ac5c]IAMDKIHQQDFVNWLLAQKGKKNDWKHNI[Ac5c]QC-NH2 [Example 33, (A5c^11, 41, Cys^43)hGIP(1-43)-NH2]”, the half-life at 0.1 mg/ml [1] was 15.8 h and the half-life at 0.1 mg/ml [2] was 6.5 h.

“YAEGTFISDY[Ac6c]IA[Ac6c]DKIHQQDFVNWLLAQKGKKNDWKHNI[Ac6c]Q-OH [Example 11, (A6c^11, 14, 41)hGIP(1-42)-OH]” gave a half-life at 0.1 mg/ml [1] of 13.1 h and a half-life at 0.1 mg/ml [2] of 8.6 h.

For “YAEGTFISDY[Ac6c]IA[Ac6c]DKIHQQDFVNWLLAQKGKKNDWKHN[Ac6c]TQ-OH [Example 14, (A6c^11, 14, 40)hGIP(1-42)-OH]”, the half-life at 0.1 mg/ml [1] was 11.6 h and the half-life at 0.1 mg/ml [2] was 4.8 h.

For “YAEGTF[Ac6c]SDYSIAMDKIHQQDFVNWLLAQKGKKNDWKHNI[Ac6c]Q-OH [Example 16, (A6c^7, 41)hGIP(1-42)-OH]”, the half-life at 0.1 mg/ml [1] was 6.5 h and the half-life at 0.1 mg/ml [2] was 1.3 h.

In the case of “YAEGTF[Ac6c]SDYSIA[Nle]DKIHQQDFVNWLLAQKGKKNDWKHNI[Ac6c]Q-OH [Example 17, (A6c^7, 41, Nle^14)hGIP(1-42)-OH]”, the half-life at 0.1 mg/ml [1] is reported as 6.3 h and the half-life at 0.1 mg/ml [2] is reported as 1.9 h.
